Broadly, the inhibition is the percentage by which the read-out fell short of the control.

Experimental findings from patent US20120053148A1, “INHIBITORS OF HEPATITIS C VIRUS” (GILEAD SCIENCES, INC., priority 2010, published 2012) are described below.

The first test relates to HCV Replicon IB. In words: HCV replicon assay in Huh-7 cells, genotype 1b (Rluc luciferase readout). It counts as cell-based, hepatitis C virus. The note with it: HCV1B replicon, Huh-7 cells, 3 days; read-out: EC50_HCV1B_. A general note: In antiviral work, replicon cells carry a viral genome segment that copies itself.
Regarding `Cc1cc(-c2nnc(N[C@H]3C[C@](O)(CO)C3)o2)nc2c(C(C)(C)C)cc(C3CC3)cc12` [Compound 513], the EC50 is 8.11 nM.

Staying with this test, now noted: Hepatitis C virus, 72 h; 10 uM; 1b-Rluc replicon, Huh-7 cells, 3 days; read-out: Inhibition @ 10 uM in 1b-Rluc.
`Cc1cc(-c2nnc(NCC3OCCO3)o2)nc2c(C(C)(C)C)cc(C3CC3)cc12` [Compound 283]: the inhibition at 10 µM worked out at 100%.

In the case of `Cc1cc(C(=O)NCC(O)Cc2ccccc2)nc2c(C(F)(F)F)cc(-c3ccccc3)cc12` (stereo not shown) [Compound 169], the inhibition at 10 µM came to 93%. Same read-out and setting: next, `CS(=O)(=O)Nc1nc(C(=O)NCc2cccs2)nc2c(C(F)(F)F)cc(-c3ccccc3)cc12` [Compound 222]: 95.1%; `Cc1cccnc1CNC(=O)c1cc(C)c2cc(C3CC3)cc(C(F)(F)F)c2n1` [Compound 84]: 99%. Same read-out and setting: in the case of `Cc1cc(C(=O)NCC(C)(C)O)nc2c(C(F)(F)F)cc(C3CC3)cc12` [Compound 93] it was 99%; in that of `Cc1cc(C(=O)NC[C@@H]2COCCN2)nc2c(C(F)(F)F)cc(C3CC3(F)F)cc12` (stereo partly shown) [Compound 155], 99.7%. Still for that read-out and setting: in the case of `Cc1cc(C(=O)NCc2ccccn2)nc2c(C(F)(F)F)cc(OCC(F)(F)F)cc12` [Compound 189] it was 99.8%. With `CCOCCOCCOCCCNc1nnc(-c2cc(C)c3cc(C4CC4)cc(C(F)(F)F)c3n2)s1` [Compound 293], the inhibition at 10 µM turned out to be 96%.

Regarding `Cc1cc(C(=O)NCC#N)nc2c(C(F)(F)F)cc(-c3ccccc3)cc12` [Compound 105], the inhibition at 10 µM was 82.8%.

In the case of `Cc1cc(C(=O)NCc2cc(C#N)ccn2)nc2c(C(F)(F)F)cc(C3CC3)cc12` [Compound 110], the inhibition at 10 µM stood at 99.9%. Still for that read-out and setting: in the case of `Cc1cc(C(=O)NCc2ccccn2)nc2c(C(F)(F)F)cc(C3CC3(F)F)cc12` (stereo not shown) [Compound 154] it was 100%; in that of `CNCCCNc1nnc(-c2cc(C)c3cc(C4CC4)cc(C(F)(F)F)c3n2)s1` [Compound 300], 97.9%; in that of `Cc1cc(-c2nnc(NCCC(C)(C)O)s2)nc2c(C(F)(F)F)cc(C3CC3)cc12` [Compound 295], 98.1%. The same measure, in the same setting: next, `O=C(NCc1ccccn1)c1cnc2cc(-c3ccccc3)cc(C(F)(F)F)c2n1` [Compound 173]: 86.3%; `Cc1cc(C(=O)NCCC2OCCO2)nc2c(C(F)(F)F)cc(C3CC3)cc12` [Compound 106]: 99.7%.

For the compound `Cc1cc(-c2nnc(NCCCS(C)(=O)=O)o2)nc2c(C(F)(F)F)cc(C3CC3)cc12` [Compound 269], the inhibition at 10 µM was 87.4%. Same read-out and setting: in the case of `Cc1cc(-c2nnc(NCCCOP(=O)(O)O)s2)nc2c(C(F)(F)F)cc(C3CC3)cc12` [Compound 287] it was 99.9%; in that of `Cc1cc(C(=O)NCC2(O)CC2)nc2c(C(F)(F)F)cc(C3CC3)cc12` [Compound 97], 98.8%. On the same count and under the same terms, in the case of `Cc1cc(-c2nnc(NC(C)(C)CO)o2)nc2c(C(F)(F)F)cc(C3CC3)cc12` [Compound 261] it was 99.2%; in that of `Cc1cc(C(=O)NCC2CCCC(=O)N2)nc2c(C(F)(F)F)cc(C3CC3)cc12` (stereo not shown) [Compound 91], 92.7%.

On to `O=C(NCc1ccccn1)c1cc(Cl)c2cc(OC(F)(F)F)cc(/C=C/c3ccccc3)c2n1` [Compound 240], for which the inhibition at 10 µM is 42.2%. Turning to `CCC(O)CNC(=O)c1cc(C)c2cc(-c3ccccc3)cc(C(F)(F)F)c2n1` (stereo not shown) [Compound 165], the inhibition at 10 µM stood at 96.5%.

On to `Cc1cc(C(=O)NC/C=C/c2ccccc2)nc2c(C(F)(F)F)cc(-c3ccccc3)cc12` [Compound 170], for which the inhibition at 10 µM is 66.4%. Still for that read-out and setting: in the case of `Cc1cc(C(=O)NC(CO)c2ccccc2)nc2c(C(F)(F)F)cc(-c3ccccc3)cc12` (stereo not shown) [Compound 167] it was 87.5%; in that of `Cc1cc(-c2nnc(Nc3ccccc3)[nH]2)nc2c(C(F)(F)F)cc(C3CC3)cc12` [Compound 272], 93.6%.

In the case of `Cc1cc(C(=O)NCc2ccccn2)nc2c(C(F)(F)F)cc(C3CC3)cc12` [Compound 79], the inhibition at 10 µM was 100%. Same read-out and setting: in the case of `Cc1cc(-c2nnc(NS(C)(=O)=O)s2)nc2c(C(F)(F)F)cc(C3CC3)cc12` [Compound 289] it was 70.7%; in that of `Cc1cc(C(=O)NCC2(O)CCCC2)nc2c(C(F)(F)F)cc(C3CC3)cc12` [Compound 94], 99.9%.

For the compound `Cc1cc(C(=O)NCC(C)(C)C#N)nc2c(C(F)(F)F)cc(-c3ccccc3)cc12` [Compound 162], the inhibition at 10 µM was found to be 80.5%. Still for that read-out and setting: in the case of `Cc1cc(-c2nnc(NCC(O)CO)s2)nc2c(C(F)(F)F)cc(C3CC3)cc12` (stereo not shown) [Compound 301] it was 99.6%; in that of `COc1cc(C(F)(F)F)c2nc(C(=O)NCc3ccccn3)cc(C)c2c1` [Compound 182], 99.3%.

For `CNCCCNC(=O)c1cc(C)c2cc(C3CC3)cc(C(F)(F)F)c2n1` [Compound 123], the inhibition at 10 µM worked out at 96.7%. On the same count and under the same terms, next, `Cc1ccc(CNC(=O)c2cc(C)c3cc(C4CC4)cc(C(F)(F)F)c3n2)nc1` [Compound 85]: 100%; `Cc1cc(C(=O)NCc2ccccn2)nc2c(C(F)(F)F)cc(N(C)S(C)(=O)=O)cc12` [Compound 179]: 98.9%.

The test is the same for the next values; noted with them: Hepatitis C virus, Huh-7, 72 h, HCV1B replicon, Huh-7 cells, 3 days; read-out: EC50_HCV1B_.
Consider `Cc1cc(-c2nnc(NCCCS(N)(=O)=O)o2)nc2c(C(C)(C)C)cc(C3CC3)cc12` [Compound 393], for which the EC50 came to 1200 nM. For the compound `CO[C@@H]1CNC(CNc2nnc(-c3cc(C)c4cc(C5CC5)cc(C(F)(F)F)c4n3)s2)C1` (stereo partly shown) [Compound 311], the EC50 was 1140 nM. On the same count and under the same terms, in the case of `CC(C)(C)c1cc(C2CC2)cc2c(N)cc(-c3nnc(NCc4ccccn4)o3)nc12` [Compound 347] it was 7.54 nM. Same read-out and setting: in the case of `Cc1cc(-c2nnc(N[C@H]3CC[C@H](O)CC3)o2)nc2c(C(C)(C)C)cc(OCC(F)(F)F)cc12` [Compound 493] it was 8.74 nM; in that of `Cc1cc(-c2nnc(NC[C@H]3CCCO3)o2)nc2c(C(C)(C)C)cc(C3CC3)cc12` [Compound 397], 3.17 nM; in that of `CO[C@@H]1CN[C@@H](CNC(=O)c2cc(N)c3cc(C4CC4)cc(C(C)(C)C)c3n2)C1` [Compound 329], 9.8 nM. With `CC(C)(C)c1cc(C2CC2)cc2c(N)cc(-c3nnc(NCCCO)o3)nc12` [Compound 365], the EC50 was 4.87 nM. For the compound `CC(C)(C)c1cc(C2CC2)cc2c(N)cc(C(=O)NC[C@@H]3CC4(CN3)SCCS4)nc12` [Compound 333], the EC50 was 6.32 nM. Still for that read-out and setting: next, `CC(C)(O)CCNc1nnc(-c2cc(N)c3cc(C4CC4)cc(C(C)(C)C)c3n2)o1` [Compound 367]: 2.15 nM; `CCC(CNC(=O)c1cc(N)c2cc(OC(F)F)cc(C(F)(F)F)c2n1)=NOC` [Compound 316]: 61.8 nM. In the case of `CSC(F)(F)Oc1cc(C(C)(C)C)c2nc(-c3nnc(N[C@H]4C[C@](O)(CF)C4)o3)cc(C)c2c1` [Compound 530], the EC50 stood at 2.81 nM. Still for that read-out and setting: next, `Cc1cc(-c2nnc(NC3CC(O)C3)o2)nc2c(C(C)(C)C)cc(C3CC3)cc12` (stereo not shown) [Compound 420]: 3.1 nM. `Cc1cc(C(=O)NC[C@@H]2CS(=O)(=O)CCN2)nc2c(OC(F)(F)F)cc(C3CC3)cc12` [Compound 441]: the EC50 stood at 12.4 nM. The same measure, in the same setting: in the case of `Cc1cc(-c2nnc(NCC3OCCO3)o2)nc2c(OC(F)(F)F)cc(C3CC3)cc12` [Compound 444] it was 5.88 nM; in that of `Cc1cc(-c2nnc(NCCCCO)s2)nc2c(C(F)(F)F)cc(C3CC3)cc12` [Compound 307], 14.1 nM; in that of `Cc1cc(-c2nnc(NCC3OC[C@H](C)O3)o2)nc2c(C(C)(C)C)cc(C3CC3)cc12` (stereo partly shown) [Compound 412], 36.2 nM. With `Cc1cc(-c2nnc(N[C@H]3CC[C@@H](O)C3)o2)nc2c(C(C)(C)C)cc(OCC(F)(F)F)cc12` (racemic) [Compound 476], the EC50 is 1.32 nM. In the case of `CO[C@H]1CN[C@H](CNC(=O)c2cc(N)c3cc(C4CC4)cc(C(C)(C)C)c3n2)C1` [Compound 323], the EC50 came out at 7 nM. The same measure, in the same setting: in the case of `CC(C)(C)c1cc(C2CC2)cc2c(N)cc(C(=O)NCc3ccon3)nc12` [Compound 322] it was 5.38 nM; in that of `CC(F)(F)CNc1nnc(-c2cc(N)c3cc(C4CC4)cc(C(C)(C)C)c3n2)o1` [Compound 346], 157 nM; in that of `Cc1cc(-c2nnc(N[C@H]3C[C@@](O)(CF)C3)o2)nc2c(C(C)(C)C)cc(OCC(F)(F)F)cc12` [Compound 517], 5.76 nM.

Regarding `CO[C@@H]1CN[C@H](CNC(=O)c2cc(N)c3cc(C4CC4)cc(C(C)(C)C)c3n2)C1` [Compound 328], the EC50 was 15.9 nM. With `Cc1cc(C(=O)NC[C@@H]2CC3(CN2)OCCO3)nc2c(C(C)(C)C)cc(C3CC3)cc12` [Compound 431], the EC50 came out at 8.04 nM. Still for that read-out and setting: next, `CCCCCCNc1nnc(-c2cc(C)c3cc(C4CC4)cc(C(F)(F)F)c3n2)o1` [Compound 389]: 145 nM; `Cc1cc(-c2nnc(N[C@H]3C[C@@H](O)C3)o2)nc2c(C(C)(C)C)cc(OCCF)cc12` [Compound 535]: 2.54 nM. The same measure, in the same setting: in the case of `Cc1nnc(-c2cc(OC(F)(F)F)cc3c(Cl)cc(C(=O)NCc4ccccn4)nc23)o1` [Compound 338] it was 4710 nM; in that of `CC(C)(C)c1cc(C2CC2)cc2c(N)cc(-c3nnc(Nc4cccc(S(N)(=O)=O)c4)o3)nc12` [Compound 357], 356 nM; in that of `CC(C)(C)c1cc(C2CC2)cc2c(N)cc(-c3nnc(NC[C@@H]4CCCO4)o3)nc12` [Compound 350], 1.9 nM. Turning to `CC[C@@]1(O)CN[C@H](CNC(=O)c2cc(C)c3cc(C4CC4)cc(C(C)(C)C)c3n2)C1` [Compound 430], the EC50 is 1450 nM. The same measure, in the same setting: next, `Cc1cc(-c2nnc(NCC3(C)OCCO3)o2)nc2c(C(C)(C)C)cc(OCC(F)(F)F)cc12` [Compound 454]: 2.27 nM; `Cc1cc(-c2nnc(NCCS(N)(=O)=O)o2)nc2c(C(C)(C)C)cc(C3CC3)cc12` [Compound 395]: 34.4 nM.

The same test, now with this note: Hepatitis C virus, Huh-7, 72 h; read-out: Inhibition @ 10 uM in 1b-Rluc.
For the compound `C=Cc1cc(C(F)(F)F)c2nc(C(=O)NCc3ccccn3)cc(C)c2c1` [Compound 152], the inhibition at 10 µM was determined as 99.9%.
